In the oligonucleotide strings, read from the 5' end, every base follows the letter of its sugar. An asterisk marks phosphorothioate; unmarked linkages are phosphodiester. Other units and linkages are bracketed, terminal groups are in braces. A string of capitals states the bases alone. d = 2'-deoxy (DNA)
Assays:
human preadipocyte = test: Effect of antisense compound on adipocyte proliferation and differentiation (Adipo Red); assay type: cell-based; conditions: human adipocyte differentiation
Method: First, human preadipocyte (Human Preadipocytes-sq POIETICS #PT-5020, Sanko Junyaku Co., Ltd.) was suspended in growth medium (#PT-8200, Sanko Junyaku Co., Ltd.), and after adding the suspension to a 96 well culture plate at 1×10^4 cells/well/100 μL, the cells were cultured overnight at 37° C. in the presence of 5% CO2.
The preadipocyte was cultured overnight, and after washing the preadipocyte twice with serum-free DMEM, Opti-MEM was added at 80 μL/well.
Gene transfection reagent Lipofectin was diluted with Opti-MEM to 20 μg/mL, and the dilution was allowed to stand at room temperature for 30 minutes. Next, the antisense oligodeoxynucleotide synthesized as described above was heated at 90° C. for 3 minutes, and after quenching on ice, diluted with Opti-MEM to a concentration 10 times higher than the final concentration. Equal amounts of the Lipofectin in Opti-MEM and the antisense oligodeoxynucleotide in Opti-MEM were mixed, and the mixture was incubated at room temperature for 15 minutes and added to 96 well plate at 20 μL/well. After incubating at 37° C. for 4 hours in the presence of 5% CO2, it was used for examination as described below.
The differentiation medium was prepared by using growth medium (#PT-8200, Sanko Junyaku Co., Ltd.) and supplement kit (PGM Single Quots, #PT-9500, Sanko Junyaku Co., Ltd.) according to the instruction of the kit. Next, the culture supernatant containing the Lipofectin was removed from the 96 well plate prepared in the above (2), and the plate was washed twice with serum-free DMEM, and the differentiation medium prepared as described above was added at 100 μL/well. The plate was then incubated at 37° C. for 5 days to 15 days in the presence of 5% CO2.
Accumulation of the neutral fat in the adipocyte was determined by fluorometry using Adipo Red stain.
After taking the 96 well plate out of the CO2 incubator, the plate was allowed to stand until it reached room temperature. The plate was centrifuged at 300 g (1200 rpm) for 10 minutes at room temperature to remove the medium. Next, after gently washing with PBS (SIGMA) at 200 μL/well, PBS was added to the well at 200 μL/well. Next, Adipo Red Assay Reagent (Adipo Red, Cat. #PT-7009, Lot.3F0497, A Cambrex Company) was added at 5 μL/well, and the plate was allowed to stand at room temperature for at least 10 minutes to thereby stain the neutral fat accumulated in the adipocyte. The fat accumulation was determined by measuring fluorescence intensity in a fluorometer at an excitation wavelength of 485 nm and an emission wavelength of 535 nm.
The suppression rate of the adipocyte differentiation was calculated by converting the fluorescence intensity of the well transfected with the antisense compound in relation to the fluorescence intensity of the well without transfection with the antisense compound which was assumed as 100%. The result was rated “+” when the suppression rate was at least 25%, “++” when the suppression rate was at least 50%, and “+++” when the suppression rate was at least 75%.

human meltrin α RNA = test: Suppression of human meltrin α expression by antisense compound in RD cell (real time PCR); assay type: cell-based; conditions: for suppression rate of expression, 50 nM / suppression rate of expression, 200 nM: RD cell, corrected by GAPDH; for RNase H-dependent activity of suppressing the meltrin α expression: 2′-methoxy modified form compared to the phosphorothioate form
Procedure, shortened: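 RD cells transfected with heat-denatured antisense oligodeoxynucleotide plus Lipofectin in Opti-MEM for 4 h at 37° C, then cultured 18 h. Meltrin α RNA quantified by TaqMan RT-PCR against plasmid standard curve, GAPDH-corrected; suppression vs untreated cells, rated +/++/+++ for ≥30/50/70%.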

Substance | Score (suppressing the human adipocyte differentiation) (human preadipocyte) | suppression rate of expression, 50 nM (human meltrin α RNA) | suppression rate of expression, 200 nM (human meltrin α RNA) | RNase H-dependent activity of suppressing the meltrin α expression (human meltrin α RNA)
H005: tgcgtcgcgcgcgcgccgtt (TGCGTCGCGCGCGCGCCGTT; antisense; DNA, all phosphorothioate, methylation of C not given here) | ++ (“++” when the suppression rate was at least 50%) | ++ (“++” when the suppression rate was at least 50%) | ++ (“++” when the suppression rate was at least 50%) | 
H130: tgacagggttggaagccacg (TGACAGGGTTGGAAGCCACG; antisense; DNA, all phosphorothioate, methylation of C not given here) | +++ (“+++” when the suppression rate was at least 75%) | ++ (“++” when the suppression rate was at least 50%) | +++ (“+++” when the suppression rate was at least 70%) | reduced activity of suppressing the meltrin α expression
H131: caaggtggccgaggtgagcc (CAAGGTGGCCGAGGTGAGCC; antisense; DNA, all phosphorothioate, methylation of C not given here) | +++ (“+++” when the suppression rate was at least 75%) | ++ (“++” when the suppression rate was at least 50%) | +++ (“+++” when the suppression rate was at least 70%) | reduced activity of suppressing the meltrin α expression
H133 + 2: tcggtgggtaggaatctggc (TCGGTGGGTAGGAATCTGGC; antisense; DNA, all phosphorothioate, methylation of C not given here) | + (“+” when the suppression rate was at least 25%) | ++ (“++” when the suppression rate was at least 50%) |  | 
H136 + 19: ctgagggacattcaggccgt (CTGAGGGACATTCAGGCCGT; antisense; DNA, all phosphorothioate, methylation of C not given here) | + (“+” when the suppression rate was at least 25%) | +++ (“+++” when the suppression rate was at least 70%) |  | 
H139 + 14: taggtgcacgtggggcccgg (TAGGTGCACGTGGGGCCCGG; antisense; DNA, all phosphorothioate, methylation of C not given here) | ++ (“++” when the suppression rate was at least 50%) | ++ (“++” when the suppression rate was at least 50%) |  | 
H143 + 15: gcttctgaggggggtttggc (GCTTCTGAGGGGGGTTTGGC; antisense; DNA, all phosphorothioate, methylation of C not given here) | ++ (“++” when the suppression rate was at least 50%) | +++ (“+++” when the suppression rate was at least 70%) |  | 
H144 + 18: ggccagaggatctgcaggca (GGCCAGAGGATCTGCAGGCA; antisense; DNA, all phosphorothioate, methylation of C not given here) | ++ (“++” when the suppression rate was at least 50%) | +++ (“+++” when the suppression rate was at least 70%) |  | reduced activity of suppressing the meltrin α expression
H151: gtgtgggtggatctgggcac (dG*dT*dG*dT*dG*dG*dG*dT*dG*dG*dA*dT*dC*dT*dG*dG*dG*dC*dA*dC) | ++ (“++” when the suppression rate was at least 50%) | ++ (“++” when the suppression rate was at least 50%) | +++ (“+++” when the suppression rate was at least 70%) | reduced activity of suppressing the meltrin α expression

From patent US20080292619A1, “Pharmaceutical Composition Containing Meltrin Antagonist” (MOCHIDA PHARMACEUTICAL CO., LTD., priority 2004, published 2008)
